Key:
Format in all cases: cell-based, human
[1] = tested on: Target C; assay: HiBiT protein abundance assay, Target C; details: Homo sapiens, K562, 24 h, Table 13A, modified K562 cells
In short: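 Target tagged with HiBiT by knock-in; 24 h dosing, 10 μM top final in 3-fold steps. IC50 from 4PL fit of normalized luminescence.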

[2] = tested on: MYB; assay: HiBiT protein abundance assay, MYB; details: Homo sapiens, K562, 24 h, Table 13A, modified K562 cells
In short: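 Tagged-target degradation assay: HiBiT-modified K562 cells treated 24 h with compound, 10 concentrations up to 10 μM final. Following lysis with LgBiT and substrate, luminescence gave normalized abundance; IC50 derived by logistic interpolation at 50%.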

[3] = tested on: MYB; assay: Splicing RT-qPCR assay, MYB mRNA canonical junction (CJ) and alternative junction (AJ); details: Homo sapiens; for AC50: increase in AJ mRNA
In short: (§1)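 Splicing switch read by one-step RT-qPCR of canonical and alternative exon junctions, housekeeper-normalized (GAPDH/GUSB/PPIA), 2^(−ΔΔCt) vs DMSO as percent response. Cells (A673 or K562) dosed 24 h, 11 points 3-fold from 10 uM, DMSO ≤0.25%.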

[4] = tested on: Target C; assay: Splicing RT-qPCR panel, Target C canonical junction (CJ) mRNA; details: Homo sapiens, RT-qPCR panel, canonical junction mRNA; compound concentration having 50% response in CJ decrease; read-out: Target C IC50 (decrease in CJ mRNA levels)
In short: as §1

[5] = 24 h, decrease in CJ mRNA, A673 or K562 cells, 24 hours treatment, RT-qPCR, read-out: MYB CJ IC50
[6] = 24 h, A673 or K562 cells, 24 hours treatment, RT-qPCR
[7] = RT-qPCR panel, canonical junction mRNA, compound concentration having 50% response in CJ decrease, read-out: MYB IC50 (decrease in CJ mRNA levels)

Compound | IC50 [1] | IC50 [2] | IC50 [3, 5] | AC50 [3, 6] | IC50 [3, 7] | IC50 [4]
CN(c1ccc(-c2cc(F)c(-c3cn[nH]c3)c3cn[nH]c23)nn1)[C@@H]1C[C@H]2CC(F)(F)[C@@H](C1)N2 (stereo in doubt) [Compound 378, 6,6-difluoro-N-{6-[5-fluoro-4-(1H-pyrazol-4-yl)-1H-indazol-7-yl]pyridazin-3-yl}-N-methyl-8-azabicyclo[3.2.1]octan-3-amine] | < 100 nM | 100 to 1000 nM | 100 to 1000 nM | < 100 nM | 100 to 1000 nM | 100 to 1000 nM
CN(c1ccc(-c2ccc(-c3cn[nH]c3)c3ncsc23)nn1)[C@@H]1C[C@H]2CC(F)(F)[C@@H](C1)N2 (stereo in doubt) [Compound 379, 6,6-difluoro-N-methyl-N-{6-[4-(1H-pyrazol-4-yl)-1,3-benzothiazol-7-yl]pyridazin-3-yl}-8-azabicyclo [3.2.1]octan-3-amine] | 100 to 1000 nM | 100 to 1000 nM | 100 to 1000 nM | 100 to 1000 nM | 100 to 1000 nM | 100 to 1000 nM
CN(c1ccc(-c2ccc(-c3cn[nH]c3)c3cn[nH]c23)nn1)[C@@H]1C[C@H]2CC[C@@H](C1)N2 [Compound 104] | 100 to 1000 nM | 100 to 1000 nM | 1000 to 10000 nM | 1000 to 10000 nM | 1000 to 10000 nM | 100 to 1000 nM
CN(c1ccc(-c2ccc(-n3cccn3)c3cn[nH]c23)nn1)[C@@H]1C[C@H]2CC[C@@H](C1)N2 [Compound 105] | < 100 nM | < 100 nM | < 100 nM | 100 to 1000 nM | < 100 nM | < 100 nM
CN(c1ccc(-c2ccc(-c3cn[nH]c3)c3ncsc23)nn1)C1CC(C)(C)NC(C)(C)C1 [Compound 132] | 100 to 1000 nM | 100 to 1000 nM | 100 to 1000 nM | 1000 to 10000 nM | 100 to 1000 nM | 100 to 1000 nM
CN(c1ccc(-c2ccc(-c3cn[nH]c3)c3cn[nH]c23)nn1)C1CC(C)(C)NC(C)(C)C1 [Compound 137] | 100 to 1000 nM | 100 to 1000 nM | 1000 to 10000 nM | 1000 to 10000 nM | 1000 to 10000 nM | 1000 to 10000 nM
CN(c1ccc(-c2ccc(-c3ccc(=O)n(C)c3)c3scnc23)nn1)C1CC(C)(C)NC(C)(C)C1 [Compound 178] | > 10000 nM | 1000 to 10000 nM | 1000 to 10000 nM | > 10000 nM | 1000 to 10000 nM | > 10000 nM
CC1(C)CC(Oc2ccc(-c3ccc(-c4cn[nH]c4)c4ncsc34)nn2)CCN1 (stereo not drawn) [Compound 182] | 100 to 1000 nM | 100 to 1000 nM | 1000 to 10000 nM | > 10000 nM | 1000 to 10000 nM | 1000 to 10000 nM
c1nc2c(-c3cn[nH]c3)ccc(-c3ccc(OC4CCNCC4)nn3)c2s1 [Compound 183] | < 100 nM | 100 to 1000 nM | 100 to 1000 nM | 100 to 1000 nM | 100 to 1000 nM | 100 to 1000 nM
c1nc2c(-c3cn[nH]c3)ccc(-c3ccc(O[C@@H]4C[C@H]5CC[C@@H](C4)N5)nn3)c2s1 [Compound 184] | 100 to 1000 nM | 100 to 1000 nM | 100 to 1000 nM | < 100 nM | 100 to 1000 nM | 100 to 1000 nM
CC1(C)CC(Nc2ccc(-c3ccc(-c4cn[nH]c4)c4ncsc34)nn2)CC(C)(C)N1 [Compound 186] | < 100 nM | 100 to 1000 nM | 100 to 1000 nM | > 10000 nM | 100 to 1000 nM | 100 to 1000 nM
c1nc2c(-c3cn[nH]c3)ccc(-c3ccc(N[C@@H]4C[C@H]5CC[C@@H](C4)N5)nn3)c2s1 [Compound 202] | 100 to 1000 nM | 100 to 1000 nM | 100 to 1000 nM | 100 to 1000 nM | 100 to 1000 nM | 100 to 1000 nM
CCN(c1ccc(C2=CC=C(c3cn[nH]c3)C3N=CSC23)nn1)[C@@H]1C[C@H]2CC[C@@H](C1)N2 (stereo partly drawn) [Compound 203] | < 100 nM | < 100 nM | 100 to 1000 nM | 100 to 1000 nM | 100 to 1000 nM | 100 to 1000 nM
CN(c1ccc(-c2ccc(-c3cn[nH]c3)c3ncsc23)nn1)[C@H]1C[C@]2(C)CC[C@](C)(C1)N2 [Compound 204] | < 100 nM | < 100 nM | < 100 nM | 100 to 1000 nM | < 100 nM | < 100 nM
[2H]C([2H])([2H])N(c1ccc(-c2ccc(-c3cn[nH]c3)c3ncsc23)nn1)[C@@H]1C[C@H]2CC[C@@H](C1)N2 [Compound 210] | < 100 nM | < 100 nM | < 100 nM | < 100 nM | < 100 nM | < 100 nM
CN(c1ccc(-c2ccc(-c3cn[nH]c3)c3ncsc23)nn1)[C@@H]1C[C@H]2CC[C@@H](C1)N2 [Compound 213] | < 100 nM | < 100 nM | 100 to 1000 nM | 100 to 1000 nM | 100 to 1000 nM | < 100 nM
c1nc2c(-c3cn[nH]c3)ccc(-c3ccc(N[C@@H]4C[C@H]5CCC[C@@H](C4)N5)nn3)c2s1 [Compound 215] | < 100 nM | < 100 nM | 100 to 1000 nM | < 100 nM | 100 to 1000 nM | < 100 nM
Fc1cc(-c2ccc(O[C@@H]3C[C@H]4CC[C@@H](C3)N4)nn2)c2[nH]ncc2c1-c1cn[nH]c1 [Compound 216] | 100 to 1000 nM | < 100 nM | 100 to 1000 nM | < 100 nM | 100 to 1000 nM | 100 to 1000 nM
CN(c1ccc(-c2ccc(-c3cn[nH]c3)c3ncsc23)nn1)[C@@H]1C[C@H]2CCC[C@@H](C1)N2 [Compound 226] | < 100 nM | < 100 nM | < 100 nM | < 100 nM | < 100 nM | < 100 nM
[2H]C([2H])([2H])N(c1ccc(-c2ccc(-c3cn[nH]c3)c3ncsc23)nn1)[C@@H]1C[C@H]2CCC[C@@H](C1)N2 [Compound 227] | < 100 nM | < 100 nM | < 100 nM | < 100 nM | < 100 nM | < 100 nM
CCN(c1ccc(-c2ccc(-c3cn[nH]c3)c3ncsc23)nn1)[C@@H]1C[C@H]2CCC[C@@H](C1)N2 [Compound 228] | < 100 nM | < 100 nM | 100 to 1000 nM | 100 to 1000 nM | 100 to 1000 nM | < 100 nM
CN(c1ccc(-c2ccc(-c3cnn(C)c3)c3cn[nH]c23)nn1)C1CCNCC1 [Compound 242] | > 10000 nM | 1000 to 10000 nM | > 10000 nM | > 10000 nM | > 10000 nM | > 10000 nM
CN(c1ccc(-c2cc(F)c(-c3cnn(C)c3)c3cn[nH]c23)nn1)[C@@H]1C[C@H]2CC[C@@H](C1)N2 [Compound 291] | < 100 nM | < 100 nM | < 100 nM | < 100 nM | < 100 nM | < 100 nM
c1n[nH]cc1-c1ccc(-c2ccc(N[C@@H]3C[C@H]4CCC[C@@H](C3)N4)nn2)c2[nH]ncc12 [Compound 294] | 100 to 1000 nM | 100 to 1000 nM | 100 to 1000 nM | 100 to 1000 nM | 100 to 1000 nM | 100 to 1000 nM
CC1(C)CC(Oc2ccc(-c3cc(F)c(-c4cn[nH]c4)c4cn[nH]c34)nn2)CC(C)(C)N1 [Compound 307] | 100 to 1000 nM | 100 to 1000 nM | 100 to 1000 nM | 1000 to 10000 nM | 100 to 1000 nM | 100 to 1000 nM
c1nc2c(-c3cn[nH]c3)ccc(-c3ccc(N(C4CC4)C4C[C@H]5CCC[C@@H](C4)N5)nn3)c2s1 (stereo partly drawn) [Compound 311] | < 100 nM | 100 to 1000 nM | 100 to 1000 nM | 100 to 1000 nM | 100 to 1000 nM | 100 to 1000 nM
Fc1cc(-c2ccc(OC3CC4CC(F)(F)C(C3)N4)nn2)c2[nH]ncc2c1-c1cn[nH]c1 (stereo not drawn) [Compound 313, 7-[6-({6,6-difluoro-8-azabicyclo[3.2.1]octan-3-yl}oxy)pyridazin-3-yl]-5-fluoro-4-(1H-pyrazol-4-yl)-1H-indazole] | 100 to 1000 nM | 100 to 1000 nM | 100 to 1000 nM | 100 to 1000 nM | 100 to 1000 nM | 100 to 1000 nM
Fc1cc(-c2ccc(O[C@@H]3C[C@H]4CC[C@@H](C3)N4)nn2)c2sncc2c1-c1cn[nH]c1 [Compound 327] | < 100 nM | < 100 nM | < 100 nM | < 100 nM | < 100 nM | < 100 nM
COc1cc(-c2ccc(-c3ccc(N(C)C4CC(C)(C)NC(C)(C)C4)nn3)c3scnc23)cnn1 [Compound 330] | < 100 nM | 100 to 1000 nM | 100 to 1000 nM | 100 to 1000 nM | 100 to 1000 nM | < 100 nM

Reference: patent publication US20240368163A1, “COMPOUNDS AND METHODS FOR MODULATING SPLICING” (REMIX THERAPEUTICS INC., priority 2021, published 2024)
